Results as given in patent US10426815B2, “Prevention and treatment of itch with an MRGPR antagonist” (THE GENERAL HOSPITAL CORPORATION, priority 2015, dated 2019).
“Also recorded” adds a separate entry of the source.

How the values were obtained:
MrgX2 (human MRGPRX2) = target: T1, MrgX2 (human MRGPRX2) (Homo sapiens, UniProt Q96LB1); experiment: Calcium imaging of cells transfected with the GPCR (Table 1); format: cell-based; conditions: for inhibition of SP-induced activation of human MRGPRX2: FIG. 6a: SP 500 nM, inhibitors 1 μM, FK888 10 μM
T1 construct: expressed in transfected cells; host or cells: HeLa cells, pcDNA3.1(-)
T1 sequence (Q96LB1 1-330): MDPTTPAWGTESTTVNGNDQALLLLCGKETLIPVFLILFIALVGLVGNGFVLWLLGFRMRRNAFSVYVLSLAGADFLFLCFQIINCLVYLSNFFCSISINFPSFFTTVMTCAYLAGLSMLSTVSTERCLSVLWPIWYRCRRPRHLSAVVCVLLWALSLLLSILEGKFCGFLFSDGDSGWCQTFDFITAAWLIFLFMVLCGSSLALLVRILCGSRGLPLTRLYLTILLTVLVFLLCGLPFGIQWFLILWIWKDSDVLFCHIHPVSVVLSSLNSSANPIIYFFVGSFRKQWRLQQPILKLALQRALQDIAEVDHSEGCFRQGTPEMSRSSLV
Protocol: (§1) human MRGPRX2 was isolated by PCR from human genomic DNA using the forward and reverse primers, […] (SEQ. ID. NO: 3) and […] (SEQ. ID. NO: 4), and cloned into pcDNA3.1(−). The mouse MrgprA1 cDNA expression clone was purchased from ORIGENE Technologies. The mouse MrgprB2 coding sequences were PCR-amplified from mouse genomic DNA using the primer pair, […] (SEQ. ID. NO: 5) and […] (SEQ. ID. NO: 6), and cloned into pcDNA3.1 (−).
(§2) 10 μg of expression vector (human MRGPRX2, mouse MrgprA1 or NK1) and 10 μl of LIPOFECTAMINE 2000 transfection reagent were diluted into 0.5 ml of DMEM and separately left at room temperature (RT) for 5 min. They were then mixed and incubated at RT for 20 minutes prior to being added to HeLa cells. HeLa cells were grown to confluence, trypsinized and 1×10^6 cells were pelleted in a 15 ml tube by centrifugation at 1000 rpm for 5 minutes. The DMEM-LIPOFECTAMINE 2000-DNA mixture (1 ml) was then added to the cell pellet, suspended and incubated at RT for 5 minutes. 2 ml of complete DMEM with 10% FBS without antibiotics were added to the tube, mixed by inverting the tube, plated into a 96-well glass bottom plate at 50,000 cells/well, and placed in a 37° C. CO2 incubator for 3 hours. HeLa cells transfected with salmon sperm DNA were plated as a control. The medium was changed after 3 hours and left in the incubator. 24 hours after transfection, the medium in the wells was removed and 100 μl of complete DMEM containing 2 μM of FURA-2 were added to each well and left at room temperature in the dark for 1 hr. Following loading with FURA-2, the medium was removed, washed with PBS and replaced with 90 μl of HEPES-buffered saline (20 mM HEPES, 115 mM NaCl, 5.4 mM KCl, 2 mM CaCl2, 0.8 mM MgCl2, 13.8 mM glucose, pH 7.4).
(§3) Calcium imaging was performed immediately after loading cells with Fura-2, using a ZEISS Axiovert 200M microscope platform equipped with a flipping filter wheel for ratiometric imaging. Axiovision software, version 4.6 was used for calcium image analysis of the cells excited at 340 nm and 380 nm. Agonists were added at 15 seconds after the start of the excitation procedure. Antagonists were added five minutes before imaging with the agonists. Images were taken every 5 seconds, including at zero time, during a 90 second period or longer if required. The software later analyzed all images taken during each excitation period. Ratiometric changes were measured in 10-20 cells in each individual experiment. An average of the fluorescence of the cells in each image was calculated and plotted against time in seconds.
Each of the concentration dependent readings was performed in triplicate. Maximum intensities at each of the dilutions were calculated and plotted against concentration using GraphPad Prism software. Error bars represent SEM.

MrgB2 (mouse MrgprB2) = target: T2, MrgB2 (mouse MrgprB2) (Mus musculus, UniProt Q3KNA1); experiment: as above; format: cell-based; conditions: for inhibition of SP-induced activation of mouse MrgprB2: FIG. 11: SP 50 μM, NK1 antagonists 50 μM
T2 construct: expressed in transfected cells; host or cells: HeLa cells, pcDNA3.1(-)
T2 sequence (Q3KNA1 1-338): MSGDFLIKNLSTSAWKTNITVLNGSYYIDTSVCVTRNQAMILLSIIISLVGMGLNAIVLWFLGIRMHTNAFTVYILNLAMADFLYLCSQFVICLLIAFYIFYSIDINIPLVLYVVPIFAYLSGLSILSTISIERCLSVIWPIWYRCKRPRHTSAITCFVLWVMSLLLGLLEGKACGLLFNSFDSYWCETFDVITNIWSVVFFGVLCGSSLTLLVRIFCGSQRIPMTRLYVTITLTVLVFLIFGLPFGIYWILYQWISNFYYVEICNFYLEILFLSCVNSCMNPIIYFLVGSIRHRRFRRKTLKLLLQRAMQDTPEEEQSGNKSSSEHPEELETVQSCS
Protocol: as §1
as §2, with “hr.” for “hr. Following loading with FURA-2, the medium was removed, washed with PBS and replaced with 90 μl of HEPES-buffered saline (20 mM HEPES, 115 mM NaCl, 5.4 mM KCl, 2 mM CaCl2, 0.8 mM MgCl2, 13.8 mM glucose, pH 7.4).”
as §3

inhibition of SP-induced activation of human MRGPRX2 (MrgX2 (human MRGPRX2))	inhibition of SP-induced activation of mouse MrgprB2 (MrgB2 (mouse MrgprB2))	activation of mouse MrgprB2 by the substance (in words) (MrgB2 (mouse MrgprB2))	Molecule	other results
–	–	activates	SP: inflammatory undecapeptide neuropeptide of the tachykinin family, synthesized by GenScript	–
did not impact	antagonized; also recorded: antagonists	–	C[C@@H](O[C@H]1OCCN(Cc2n[nH]c(=O)[nH]2)[C@H]1c1ccc(F)cc1)c1cc(C(F)(F)F)cc(C(F)(F)F)c1 [aprepitant]	–

Further lines, the molecule ahead of its results:

Molecule	inhibition of SP-induced activation of human MRGPRX2 (MrgX2 (human MRGPRX2))	inhibition of SP-induced activation of mouse MrgprB2 (MrgB2 (mouse MrgprB2))	activation of mouse MrgprB2 by the substance (in words) (MrgB2 (mouse MrgprB2))	other results
FC(F)(F)c1cc(CO[C@H]2CCCN[C@H]2c2ccccc2)cc(C(F)(F)F)c1 [L-733060]	did not impact	antagonized; also recorded: antagonists	–	–
SLIGRL: tethered hexapeptide ligand of mouse PAR2 (SEQ ID NO: 7)	–	–	activates	activation of human MRGPRX2 by the substance (in words) (MrgX2 (human MRGPRX2); NPFF 50 μM, capsaicin 3 μM, SP at nanomolar concentrations): activates
Boc-Gln-D-Trp(Formyl)-Phe benzyl ester trifluoroacetate [QWF]	excellent inhibitor; also recorded: potent antagonist; also recorded: inhibits	inhibits; also recorded: antagonized; also recorded: antagonist	–	inhibition of hMRGPRX2 activation by compound 48/80 (MrgX2 (human MRGPRX2)): inhibits; inhibition of human MRGPRX2 activation by atracurium and ciprofloxacin (MrgX2 (human MRGPRX2); FIG. 8a): antagonized; also recorded: inhibits; inhibition of mMrgprB2 activation by compound 48/80 (MrgB2 (mouse MrgprB2)): inhibits; inhibition of mouse MrgprB2 activation by atracurium and ciprofloxacin (MrgB2 (mouse MrgprB2); FIG. 8a): antagonized; also recorded: inhibits; inhibition of mMrgprB2 activation by SLIGRL (MrgB2 (mouse MrgprB2); SLIGRL 10 μM, QWF 10 μM (FIG. 12)): inhibits
